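Protocol summary: plate cells (96-well), add compound at 5 concentrations, incubate 48 h, interpolate endpoints linearly. GI50 = concentration required for 50% inhibition of growth. The concentration for full growth arrest is given as TGI.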
How the values were obtained:
Assay in all cases: DTP human tumour cell line panel, 48 h
COLO 205 colon = tested on: COLO 205 colon
EKVX NSCLC = tested on: EKVX NSCLC
HL-60(TB) leukemia = tested on: HL-60(TB) leukemia
HOP-92 NSCLC = tested on: HOP-92 NSCLC
HT29 colon = tested on: HT29 colon
LOX IMVI melanoma = tested on: LOX IMVI melanoma
M14 melanoma = tested on: M14 melanoma
NCI-H226 lung = tested on: NCI-H226 lung
UACC-257 melanoma = tested on: UACC-257 melanoma
UACC-62 melanoma = tested on: UACC-62 melanoma

Row | Structure (SMILES) | TGI (COLO 205 colon) [µM] | TGI (EKVX NSCLC) [µM] | TGI (HL-60(TB) leukemia) [µM] | TGI (HOP-92 NSCLC) [µM] | TGI (HT29 colon) [µM] | TGI (LOX IMVI melanoma) [µM] | TGI (M14 melanoma) [µM] | TGI (NCI-H226 lung) [µM] | TGI (UACC-257 melanoma) [µM] | TGI (UACC-62 melanoma) [µM] | GI50 (EKVX NSCLC) [µM] | GI50 (HL-60(TB) leukemia) [µM] | GI50 (HOP-92 NSCLC) [µM] | GI50 (HT29 colon) [µM] | GI50 (LOX IMVI melanoma) [µM] | GI50 (M14 melanoma) [µM] | GI50 (NCI-H226 lung) [µM] | GI50 (UACC-257 melanoma) [µM] | GI50 (UACC-62 melanoma) [µM] | GI50 (COLO 205 colon) [µM]
1 | COc1cc(C=C2C(C)=NN(c3cccc(Cl)c3)C23SCC(=O)N3c2nc3ccccc3s2)ccc1O (centres undefined) | 32.9 | > 100 | 26.7 | 45.4 | > 100 | > 69 | > 100 | > 80.7 | > 100 | 96.1 |  |  |  |  |  |  |  |  |  | 
2 | CNC(=O)OC(C)CN1c2ccccc2Sc2ccc(Cl)cc21 (centres undefined) | > 10 | > 10 | > 10 |  | > 10 | > 10 | > 10 | > 10 |  | > 10 |  |  |  |  |  |  |  |  |  | 
3 | CCOC(=O)CSc1nc(N)c2c(-c3ccc(OC)c(OC)c3)c3c(nc2n1)CCCC3 | > 100 | > 100 | > 100 |  | > 100 | > 100 | > 100 |  | > 100 | > 100 |  |  |  |  |  |  |  |  |  | 
4 | COc1ccc2nc(-n3c(/C=C/c4ccccc4O)nc4ccccc4c3=O)sc2c1 | > 100 | 39.7 | > 100 | > 100 | > 100 | > 100 | > 100 | > 100 | > 100 | > 100 |  |  |  |  |  |  |  |  |  | 
5 | CC[C@H]1C=CCC[C@@]2(C[C@@H]3CC[C@@H]4[C@H](C(=O)OCCCCCCCCCCCCCCCC(=O)O)[C@]5(CCC[C@@H](C)O5)NC(=[N+]34)N2)O1 | 1.34 | 10.5 | 0.636 | 0.615 | 5.61 | 0.284 | 0.212 | 3.69 |  | 0.179 |  |  |  |  |  |  |  |  |  | 
6 | Cn1c(=O)c2c(nc(-n3nc(-c4ccc(Cl)cc4)cc3N)n2C)n(C)c1=O | > 100 | > 100 | > 100 | > 100 | > 100 |  | > 100 | > 100 | > 100 | > 100 |  |  |  |  |  |  |  |  |  | 
7 | COc1ccc2nc(-c3ccc(-c4noc(-c5cc(OC)c(OC)c(OC)c5)n4)cc3)[nH]c2c1 |  | 84.9 | 81.7 | 33.5 | 15.2 | 34.6 | 22.7 | 81.4 | 46.9 | 33.4 | 26.2 | 20.2 | 14.3 | 2.7 | 13.3 | 5.47 | 22.7 | 17.1 | 14 | 
8 | CCCNC(=O)c1cc(NC(=O)c2cc(NC(=O)/C=C/c3ccccc3)c(OC)c(OC)c2)c(OC)c(OC)c1 | > 100 | 54.1 | > 100 |  | 66.5 | 8.35 | > 100 | 0.17 | 52.2 | 0.597 |  |  |  |  |  |  |  |  |  | 
9 | ONc1ncnc2nc[nH]c12 | > 100 |  | > 100 | > 100 | > 100 |  | > 100 | > 100 | > 100 | > 100 |  |  |  |  |  |  |  |  |  | 
10 | CN(C)CC(=O)Nc1ccc(Cn2nnc3c2C(=O)c2nnn(Cc4ccc(NC(=O)CN(C)C)cc4)c2C3=O)cc1 | 0.253 |  | 0.5 |  |  |  | 0.284 | 0.444 | 0.339 | 0.432 |  | 0.074 |  |  |  | 0.14 | 0.209 | 0.172 | 0.201 | 0.087
11 | N=C(N)c1ccc(-c2ccc(-c3cc(Cl)cc(Cl)c3)o2)nc1 | 3.78 |  | 4.62 | 3.14 | 3.69 | 3.41 | 3.63 | 5.19 | 3.59 | 3.36 |  | 2.42 | 1.56 | 1.76 | 1.77 | 1.9 | 2.13 | 1.84 | 1.78 | 2.01
12 | CCC1C(C#N)=C(N)OC2=C1C(=O)CC(C)(C)C2 (centres undefined) | > 100 | > 100 | > 100 | > 100 | > 100 | > 100 | > 100 |  | > 100 | > 100 |  |  |  |  |  |  |  |  |  | 
13 | CC(=O)Nc1cc([As](=O)(O)O)ccc1O | > 100 | > 100 | > 100 | > 100 | > 100 | > 100 | > 100 | > 100 | > 100 | > 100 |  |  |  |  |  |  |  |  |  | 
14 | CC#CC#C/C=C1/O[C@]2(CCC(OC(C)=O)CO2)[C@@H]2O[C@H]12 (some centres undefined) | 32.4 | 77.5 | 48.7 | 92.9 | 96.1 | 48.2 | 67.6 | 47.4 | 74.9 | 36.8 |  |  |  |  |  |  |  |  |  | 
15 | COc1cccc(N=Cc2cc3cc(Br)ccc3nc2Cl)c1 | > 50 | > 50 | > 50 | > 50 | > 50 | > 50 | > 50 | 25.7 | > 50 |  |  |  |  |  |  |  |  |  |  | 
16 | CCCc1[nH]c(SCCCCCCCCSc2nc(-c3ccc(F)cc3)c(CCC)[nH]2)nc1-c1ccc(F)cc1 | > 100 | 52.5 | > 100 | 29.6 | > 100 | > 100 | > 100 |  | > 100 | > 100 |  |  |  |  |  |  |  |  |  | 
17 | O=C(CCCCCCC(=O)Nc1ccc(N(CCCl)CCCl)cc1)NO | 19.9 | 37.9 |  | 5.47 | 12.7 | 3.78 | 10.7 | 21 | 14.1 | 5.09 | 11.5 |  | 1.19 | 1.56 | 1.34 | 2.43 | 4.01 | 2.27 | 1.09 | 4.4

Source: PubChem BioAssay (NCI)
